Results: patent US11096934B2, “Compounds and methods useful for treating or preventing hematological cancers” (THE BROAD INSTITUTE, INC., priority 2015, dated 2021)

Assays:
[1] = tested on: protein O-GlcNAc modification; test: Immunoblot of protein O-GlcNAc modification; format: cell-based
Description: FIG. 5E is an immunoblot.
DHODH and OMPD inhibitors lead to depletion of uridine and to myeloid differentiation in model systems. […] (See, Example 24.) Without intending to be bound by theory, part of the differentiation effect may be due to depletion of UDP-GlcNAc leading to decreased O-linked N-acetylglycosylation (GlcNAc) post-translational modification of proteins.

[2] = tested on: THP1 cells; test: THP-1 subcutaneous xenograft model of AML; format: in vivo, SCID mice
Description: THP1 cells were implanted subcutaneously into the flank of SCID mice, and allowed 10 days to engraft to tumor size of ˜40 mm^2.

[3] = tested on: leukemia initiating cells; test: Leukemia-initiating cell activity (transplant of FACS-purified leukemia cells into tertiary recipients); format: in vivo, mice
Description: Leukemic cells isolated from the BRQ-treated mice were more differentiated on the basis of their CD11b and Gr-1 cell-surface expression (FIGS. 6C, 6D). To assess their morphology as well as their functional potential as leukemia initiating cells, live Venus-positive leukemic cells were freshly isolated from vehicle or BRQ-treated mice by fluorescence-activated cell sorting (FACS).
FACS-purified leukemia cells from vehicle or BRQ-treated mice were re-introduced into sub-lethally irradiated tertiary recipient mice. The experiment was performed twice: from mice that received BRQ 25 mg/kg every other day for 4 doses (FIG. 7B, left panel), and from mice that received BRQ day 1+4 of a 7-day cycle for a total of 6 doses (FIG. 7B, right panel).

[4] = Brequinar plasma concentration after a single IP dose; conditions: mouse, FIG. 4E, read-out: half-life in vivo (converted)
[5] = tested on: wild-type C57B1/6 mice; conditions: C57B1/6, mouse, in vivo, 6 days
[6] = tested on: Lys-GFP-ER-HoxA9 cells; test: Myeloid differentiation assay in Lys-GFP-ER-HoxA9 cells (GFP / CD11b flow cytometry)
Protocol: (See Example 20 for assay details.) After four days of compound treatment, cells were assessed by high-throughput flow cytometry for viability based on forward and side-scatter properties, and for differentiation as determined by the endogenous expression of GFP and cell-surface expression of CD11b (APC fluorescence, FIG. 2C).
The cell line used was ERHoxA9 myeloblast cell line. […] Removal of beta-estradiol from the culture media inactivates ERHoxA9 and the cells are freed from the HoxA9-differentiation arrest and undergo normal myeloid differentiation.
Cells were cultured in RPMI (Cellgro) supplemented with 10% fetal bovine serum (Serum Source Int'l), penicillin/streptomycin, L-glutamine (Omega Scientific), 5% conditioned media containing stem cell factor (SCF), and 0.5 μM beta-estradiol (Sigma). On day 1, 25 μL of complete media supplemented with 0.04% Pluronic F-68 (GIBCO) was added to a sterile 384 well culture plate (Greiner) followed by the addition of 0.2 μL of test compound in DMSO (Sigma). Wells contained complete media supplemented with Pluronic F-68 and the 5 μM of the estrogen receptor antagonist fulvestrant that served as a positive control for differentiation. 25 μL of cells (1.2×10^5/ml) in complete media were added and the plates were incubated (37° C./5% CO2) for 4 days. Final concentrations of components were 3,000 cells/well, 4 μM test compound, and 0.4% DMSO.
On day 5, plates were harvested as follows: 5 μL of an antibody/bead solution consisting of a 1:100 dilution of APC-conjugated anti-mouse CD11b (eBioscience, cloneM1/70) and a 1/500 dilution of polystyrene beads (Spherotech) were added to wells and the plates were incubated for 20 min prior to sampling using the HyperCyt® high throughput flow cytometry platform.
Cells were cultured in RPMI (Cellgro) supplemented with 10% fetal bovine serum (Serum Source Int'l), penicillin/streptomycin, L-glutamine (Omega Scientific), 5% conditioned media containing stem cell factor (SCF), and 0.5 μM beta-estradiol (Sigma, E2758). On day 1, 25 μL of complete media supplemented with 0.04% Pluronic F-68 (GIBCO) was added to a sterile 384 well culture plate (Greiner) followed by the addition of 0.2 μL of compound dilution arrays in DMSO. Some wells contained complete media supplemented with Pluronic F-68 and 5 μM of the estrogen receptor antagonist fulvestrant that served as a positive control for differentiation. 25 μL of cells (1.2×10^5/ml) in complete media were added and the plates were incubated (37° C./5% CO2) for 4 days. Final concentrations of components were 3,000 cells/well and 0.4% DMSO.

[7] = tested on: wild-type C57B1/6 mice; test: Maximum tolerated dose (MTD) evaluation; conditions: doses higher than 15 mg/kg, after 6 days of daily dosing; reversible
[8] = tested on: HoxA9-Meis1 leukemia cells; test: Syngeneic HoxA9 and Meis1-driven model of AML
Description: To address the anti-leukemic and differentiation effect of DHODH inhibition in vivo, we chose a syngeneic retroviral transduction model of AML. In this model, bone marrow cells are transduced with MSCV-based retrovirus expressing both HoxA9 and Meis1 oncoproteins and introduced intravenously into recipient mice that have been pre-conditioned with a sub-lethal dose of radiation. Mice that developed acute myeloid leukemia were sacrificed and bone marrow cells were expanded in vitro in media supplemented with SCF and IL-3. To permit easy tracking in vivo, leukemic cells were transduced with lentivirus expressing the Venus fluorescent protein, and double-sorted by fluorescence activated cell sorting (FACS) to purity. These Venus-expressing cultured leukemic cells were re-transplanted into pre-conditioned secondary recipient mice, and these secondary recipients were used in all described experiments. […] Mice were treated at six dosages: (1) vehicle Q2D, (2) BRQ 5 mg/kg Q2D, (3) BRQ 10 mg/kg Q2D, (4) BRQ 25 mg/kg Q2D, (5) vehicle days 1+4 of a 7-day schedule or (6) BRQ 25 mg/kg days 1+4 of a 7-day schedule. Scheduled interim euthanasia and leukemia analyses were performed at two planned time points (FIG. 6A).

[9] = Plasma protein binding; format: in vitro ADME; conditions: consistent with published literature
Protocol: Plasma protein binding was determined by equilibrium dialysis using the Rapid Equilibrium Dialysis (RED) device (Pierce Biotechnology, Rockford, Ill.) for both human and mouse plasma. Each compound was prepared in duplicate at 5 μM in plasma (0.95% acetonitrile, 0.05% DMSO) and added to one side of the membrane (200 μl) with PBS pH 7.4 added to the other side (350 μl). Compounds were incubated at 37° C. for 5 hours with a 250 rpm orbital shake. After incubation, samples were analyzed by UPLC-MS (Waters, Milford, Mass.) with compounds detected by SIR detection on a single quadrupole mass spectrometer.

[10] = tested on: organ rejection; conditions: in vivo; cited from earlier work
[11] = molecular target: panel of >400 known kinases; test: DiscoverX KinomeScan kinase panel; format: binding
[12] = tested on: DHODH activity; test: Plasma uridine and dihydroorotate (DHO) after brequinar dosing; format: in vivo, murine
Protocol: DHODH catalyzes the conversion of dihydroorotate (DHO) to orotate in the endogenous synthesis of uridine monophosphate. Inhibition of DHODH activity results in dihydroorotate accumulation and uridine depletion.
Plasma uridine levels were analyzed at various times thereafter (FIG. 8). […] Patient-specific dosing will be accomplished by adjusting the dose of DHODH inhibitor based on the patient's metabolism. This will involve adjusting the dosage based on the measurement of plasma DHO.

[13] = 5 mg/kg or 10 mg/kg every other day
[14] = 25 mg/kg day 1+4 of a 7-day schedule
[15] = 25 mg/kg day 1+4 of a 7-day schedule, 6 doses

Cc1c(-c2ccc(-c3ccccc3F)cc2)nc2ccc(F)cc2c1C(=O)O [brequinar, 6-fluoro-2-(2′-fluoro-[1,1′-biphenyl]-4-yl)-3-methyl-quinoline-4-carboxylic acid]
protein O-GlcNAc modification [1]: global reduction of protein O-GlcNAc modification
tumor growth ([2]; 5 mg/kg daily IP): arrested tumor growth
tumor growth ([2]; 15 mg/kg Q3D IP): slowed tumor growth
reduction in cellular uridine levels ([2]; THP1 cells isolated from treated mice vs vehicle): 90 % AUC
differentiation of explanted THP1 cells (CD11b expression) ([2]; tumors explanted after 10 days of treatment): marked differentiation
morphology of leukemic cells isolated from treated mice ([3]; Wright-Giemsa cytospin): morphologic granulocytic differentiation
leukemia development in recipients of leukemic cells from treated donors ([3]; donors: 25 mg/kg every other day 4 doses, or day 1+4 of 7-day cycle 6 doses, both cases): took longer to develop symptoms of leukemia
half-life [4]: ~12 h
tolerated dose [5]: up to 15 mg/kg
increase in ED50 ([6]; cells cultured in 50% FBS): ~2 fold
myeloid differentiation effect in vitro ([6]; pulses that lasted fewer than 48-hours): almost no effect
toxicity [7]: weight loss and thrombocytopenia
survival [8, 13]: prolongation of survival
tolerability [8, 13]: well tolerated without hematologic toxicity or weight loss
differentiation markers on leukemic cells ([8]; 25 mg/kg Q2D for four doses): upregulation of differentiation markers CD11b (Mac-1) and Gr-1 (Ly6C/G)
leukemic involvement of bone marrow, spleen and peripheral blood ([8]; 25 mg/kg Q2D for four doses): dramatic decrease in the leukemic involvement of their bone marrow, spleen, and peripheral blood
side effects ([8]; 25 mg/kg Q2D for four doses): weight loss, anemia, and thrombocytopenia
time off treatment until relapse with leukemia ([8]; 25 mg/kg day 1+4, discontinued after 14 doses (day 59)): approximately 4 weeks
survival [8, 14]: even more dramatic prolongation of survival
toxicity [8, 14]: without toxicity
leukemic involvement of bone marrow, spleen and peripheral blood [8, 15]: even more dramatic decrease in the leukemic involvement of their bone marrow, spleen, and peripheral blood
side effects [8, 15]: none of the side effects
cellular uridine, UDP and UDP-glycoconjugates ([8]; HoxA9-Meis1 leukemia cells from bone marrow of treated mice): significant reduction in cellular uridine
tolerability and efficacy ([8]; administered every 3-days, mouse model of AML): both effective against AML and well-tolerated
protein-bound [9]: 98-99%
prevention of organ rejection [10]: effective in preventing organ rejection
kinase inhibitory activity ([11]; 100 nM): near-complete absence of kinase inhibitory activity
kinase inhibitory activity ([11]; 1 μM): near-complete absence of kinase inhibitory activity
change in DHO levels, IP versus PO administration ([12]; FIG. 11): similar
time until DHO levels undetectable again ([12]; single 25 mg/kg dose): ≤ 72 h
time to rebound of plasma uridine ([12]; single dose 25 mg/kg): about 48 hours
